Assay results published in ChEMBL document CHEMBL1201862, “PubChem BioAssay data set” (2004).
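Step 1: Grow cells in 96-well plates. Step 2: Expose to compound for 48 hours at 5 concentrations. Step 3: Interpolate endpoints linearly; if unreached, use highest concentration. GI50 is the concentration that inhibits growth by half.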 The source made the active and inactive calls. No stated cut-off is given here; in the data, active = GI50 up to about 1.1 µM and inactive = higher.

Experiments:
Experiment in all cases: growth of human tumour cells (NCI), 48 h
[1] = test system: 786-0
[2] = test system: A498
[3] = test system: A549
[4] = test system: ACHN
[5] = test system: BT-549
[6] = test system: CAKI-1
[7] = test system: CCRF-CEM
[8] = test system: COLO 205
[9] = test system: DU-145
[10] = test system: EKVX
[11] = test system: HCT-116
[12] = test system: HCT-15
[13] = test system: HL-60
[14] = test system: HOP-62
[15] = test system: HT-29
[16] = test system: Hs-578T
[17] = test system: IGROV-1
[18] = test system: K562
[19] = test system: KM12
[20] = test system: LOX IMVI
[21] = test system: M14
[22] = test system: MDA-MB-231
[23] = test system: MDA-MB-435
[24] = test system: MDA-N
[25] = test system: MOLT-4
[26] = test system: Malme-3M
[27] = test system: NCI-H226
[28] = test system: NCI-H23
[29] = test system: NCI-H460
[30] = test system: NCI-H522
[31] = test system: NCI/ADR-RES
[32] = test system: OVCAR-3
[33] = test system: OVCAR-4
[34] = test system: OVCAR-5
[35] = test system: OVCAR-8
[36] = test system: PC-3
[37] = test system: RPMI-8226
[38] = test system: RXF 393
[39] = test system: SF-268
[40] = test system: SF-295
[41] = test system: SK-MEL-28
[42] = test system: SK-MEL-2
[43] = test system: SK-MEL-5
[44] = test system: SK-OV-3
[45] = test system: SN12C
[46] = test system: SNB-19
[47] = test system: SNB-75
[48] = test system: SW-620
[49] = test system: TK-10
[50] = test system: U-251
[51] = test system: UACC-257
[52] = test system: UACC-62
[53] = test system: UO-31
[54] = test system: HCC 2998
[55] = test system: HOP-92
[56] = test system: MCF7
[57] = test system: SF-539
[58] = test system: SR
[59] = test system: T47D

In the case of `c1ccc(C2CC(NC3CCCCC3)=Nc3ccccc3N2)cc1` (stereo not drawn), the GI50 [1] is reported as > 100 µM (inactive), the GI50 [2] is reported as 18.8 µM (inactive) and the GI50 [3] is reported as > 100 µM (inactive). The GI50 [4] was > 100 µM (inactive), the GI50 [5] was 54.8 µM (inactive) and the GI50 [6] was 98.9 µM (inactive). The GI50 [7] was 34.9 µM (inactive), the GI50 [8] was 24.2 µM (inactive) and the GI50 [9] was > 100 µM (inactive). For the same compound, the GI50 [10] was 54.8 µM (inactive), the GI50 [11] was 73.5 µM (inactive) and the GI50 [12] was 94.2 µM. For the same compound, the GI50 [13] was 25.8 µM (inactive), the GI50 [14] was > 100 µM (inactive) and the GI50 [15] was 24.2 µM (inactive). The GI50 [16] was 28.4 µM (inactive), the GI50 [17] was 27.7 µM (inactive) and the GI50 [18] was 19.3 µM (inactive). The GI50 [19] was 40.8 µM (inactive), the GI50 [20] was 20.4 µM (inactive) and the GI50 [21] was 27.4 µM (inactive). The GI50 [22] was 24.5 µM (inactive), the GI50 [23] was 24.3 µM (inactive) and the GI50 [24] was 75.9 µM (inactive). The GI50 [25] was 17.7 µM (inactive), the GI50 [26] was 15.6 µM (inactive) and the GI50 [27] was > 100 µM (inactive). The GI50 [28] was 54.1 µM (inactive), the GI50 [29] was 46.9 µM (inactive) and the GI50 [30] was 22.8 µM (inactive). For the same compound, the GI50 [31] was > 100 µM (inactive), the GI50 [32] was > 100 µM (inactive) and the GI50 [33] was > 100 µM (inactive). The GI50 [34] was 78.2 µM (inactive), the GI50 [35] was > 100 µM (inactive) and the GI50 [36] was 33.6 µM (inactive). The GI50 [37] was 34 µM (inactive), the GI50 [38] was 31.7 µM (inactive) and the GI50 [39] was 65.3 µM (inactive). The GI50 [40] was 44 µM (inactive), the GI50 [41] was 45.2 µM (inactive) and the GI50 [42] was > 100 µM (inactive). The GI50 [43] was 18.7 µM (inactive), the GI50 [44] was > 100 µM (inactive) and the GI50 [45] was > 100 µM (inactive). The GI50 [46] was > 100 µM (inactive), the GI50 [47] was 16.4 µM (inactive) and the GI50 [48] was > 100 µM (inactive). For the same compound, the GI50 [49] was > 100 µM (inactive), the GI50 [50] was 56.9 µM (inactive) and the GI50 [51] was 47.5 µM (inactive). For the same compound, the GI50 [52] was 31.2 µM (inactive) and the GI50 [53] was > 100 µM (inactive).
For `COc1ccc2nc3cc([N+](=O)[O-])ccc3c(Nc3ccc(S(=O)(=O)N=C(N)N)cc3)c2c1`, the GI50 [1] was 20.1 µM (inactive), the GI50 [2] was > 100 µM (inactive) and the GI50 [3] was 47 µM (inactive). For the same compound, the GI50 [4] was 40.9 µM (inactive), the GI50 [5] was 33.2 µM (inactive) and the GI50 [6] was 23.3 µM (inactive). The GI50 [7] was 11 µM (inactive), the GI50 [8] was 23.1 µM (inactive) and the GI50 [9] was 28.8 µM (inactive). For the same compound, the GI50 [10] was 15.2 µM (inactive), the GI50 [54] was 19 µM (inactive) and the GI50 [11] was 11.9 µM (inactive). The GI50 [12] was 36.2 µM, the GI50 [13] was 11.9 µM (inactive) and the GI50 [14] was 27.2 µM (inactive). The GI50 [55] was 11.5 µM (inactive), the GI50 [15] was 22.1 µM (inactive) and the GI50 [16] was 30.9 µM (inactive). For the same compound, the GI50 [18] was 18.3 µM (inactive), the GI50 [19] was 15.5 µM (inactive) and the GI50 [20] was 28.4 µM (inactive). For the same compound, the GI50 [21] was 30.5 µM (inactive), the GI50 [56] was 9.55 µM (inactive) and the GI50 [22] was 17.2 µM (inactive). For the same compound, the GI50 [23] was 39.9 µM (inactive), the GI50 [24] was 39.3 µM (inactive) and the GI50 [25] was 2.72 µM (inactive). For the same compound, the GI50 [26] was 14 µM (inactive), the GI50 [27] was 20.4 µM (inactive) and the GI50 [28] was 26.8 µM (inactive). For the same compound, the GI50 [29] was 9.82 µM (inactive), the GI50 [30] was 18.8 µM (inactive) and the GI50 [32] was 16.5 µM (inactive). The GI50 [33] was 28.2 µM (inactive), the GI50 [34] was > 100 µM (inactive) and the GI50 [36] was 12 µM (inactive). The GI50 [37] was 10.5 µM (inactive), the GI50 [38] was 40.1 µM (inactive) and the GI50 [39] was 28 µM (inactive). The GI50 [40] was 47.1 µM (inactive), the GI50 [57] was 24.1 µM (inactive) and the GI50 [41] was > 100 µM (inactive). The GI50 [42] was 18.5 µM (inactive), the GI50 [43] was 15.7 µM (inactive) and the GI50 [44] was 58.5 µM (inactive). For the same compound, the GI50 [45] was 48.1 µM (inactive), the GI50 [46] was 43.6 µM (inactive) and the GI50 [58] was 1.32 µM (inactive). For the same compound, the GI50 [48] was 36.8 µM (inactive), the GI50 [59] was 9.91 µM (inactive) and the GI50 [49] was 47.2 µM (inactive). The GI50 [50] was 30.5 µM (inactive), the GI50 [51] was 51.2 µM (inactive) and the GI50 [52] was 14.6 µM (inactive). The GI50 [53] was 30.5 µM (inactive).
